Patent US20250144067A1, “PERSONALIZED STARVATION THERAPY FOR CANCER” (Faeth Therapeutics, Inc., priority 2021, published 2025)
Structures can show the parent of a compound that is named as a salt. Where two headings read alike, the source gives them in different places.

Key:
[1] = test system: NCI-H292 lung cancer cells; assay: FDA drug screening, complete media vs cholesterol-free media without statin (TABLE 1); assay type: cell-based, human
[2] = test system: NCI-H292 lung cancer cells; assay: FDA drug screening, complete media vs cholesterol-free media with simvastatin (TABLE 2); assay type: cell-based, human
[3] = Complete minus Cholesterol-free, >0 enhanced anti-cancer activity, about 0 neutral, <0 antagonist
[4] = NCI-H292 cells, cholesterol-free media without statin, FDA drug library screen
[5] = NCI-H292 cells, complete media, FDA drug library screen
[6] = NCI-H292 cells, FDA drug library screen, cholesterol-free media with simvastatin 0.04 μM
[7] = NCI-H292 cells, FDA drug library screen, complete media
[8] = complete media vs cholesterol-free media + simvastatin (0.04 μM), >0 enhanced anti-cancer activity, about 0 neutral, <0 antagonist
[9] = complete vs cholesterol-free media, >0 enhanced anti-cancer activity, about 0 neutral, <0 antagonist
[10] = Complete minus Cholesterol-free, greater than 0 enhanced anti-cancer activity, about 0 neutral, below 0 antagonist
[11] = NCI-H292 cells, FDA drug library screen, cholesterol-free media without statin
[12] = complete media minus cholesterol-free media + simvastatin, >0 enhanced anti-cancer activity, about 0 neutral, <0 antagonist
[13] = Complete minus Cholesterol-free, greater than 0 enhanced anti-cancer activity, about 0 neutral, below 0 antagonists
[14] = NCI-H292 cells in cholesterol-free media without statin
[15] = NCI-H292 cells in complete media
[16] = NCI-H292 cells, cholesterol-free media with simvastatin 0.04 μM, FDA drug library screen (TABLE 2)
[17] = NCI-H292 cells, complete media, FDA drug library screen (TABLE 2)
[18] = complete media minus cholesterol-free media + simvastatin (0.04 μM), >0 enhanced anti-cancer activity, about 0 neutral, <0 antagonist
[19] = NCI-H292 cells, cholesterol-free media without statin
[20] = complete vs cholesterol-free media, greater than 0 enhanced anti-cancer activity, about 0 neutral, below 0 antagonists
[21] = NCI-H292 cells, FDA library drug in cholesterol-free media with simvastatin 0.04 μM
[22] = NCI-H292 cells, FDA library drug in complete media

Which Difference [1, 3] does the source give for `C[C@@H](OC[C@@]1(c2ccccc2)CC[C@]2(CCC(=O)N2)CN1)c1cc(C(F)(F)F)cc(C(F)(F)F)c1` [Rolapitant] here?
Its Difference is −0.04.

And the Cholesterol-free [1, 4]?
The Cholesterol-free was 0.9892.

What about the Complete [1, 5] of the same compound?
Its Complete is 0.9523.

What about the “Cholesterol-free media + simvastatin (0.04 μM)” value [2, 6] of the same compound?
Its value is 1.001.

And the “Complete Media” value [2, 7]?
The value was 0.9304.

And the Difference [2, 8]?
Its Difference is −0.07.

With `CO[C@@H]1[C@@H](O[C@@H]2O[C@H](C)[C@@H](O[C@H]3C[C@@](C)(O)[C@@H](OC(=O)CC(C)C)[C@H](C)O3)[C@H](N(C)C)[C@H]2O)[C@@H](CC=O)C[C@@H](C)[C@@H](O)/C=C/C=C/C[C@@H](C)OC(=O)C[C@H]1OC(C)=O` [Josamycin] as the compound, how does the Cholesterol-free [1, 4] read?
The Cholesterol-free was 0.6797.

And the Complete [1, 5]?
Its Complete is 1.216.

And the Difference [1, 9]?
The Difference was 0.54.

And the “Cholesterol-free media + simvastatin (0.04 μM)” value [2, 6]?
The value was 0.9194.

And the “Complete Media” value [2, 7]?
Its value is 0.8246.

And the Difference [2, 8]?
The Difference was −0.09.

Which results are given for `Cc1cc(C2CCCCC2)n(O)c(=O)c1` [Ciclopirox (olamine)]?
Difference [1, 10]: −0.13; Cholesterol-free [1, 11]: 0.3971; Complete [1, 7]: 0.2691; Cholesterol-free media + simvastatin (0.04 μM) ([2]; NCI-H292 cells, cholesterol-free media with simvastatin 0.04 μM, cell growth value in FDA drug screen): 0.5971; Complete Media ([2]; NCI-H292 cells, complete media, cell growth value in FDA drug screen): 0.715; Difference [2, 12]: 0.12

How did the Difference [1, 13] turn out when `CC(C)NC[C@H](O)COc1cccc2ccccc12.Cl` [(S)-(−)-Propranolol (hydrochloride)] was run?
The Difference was −0.61.

What about the Cholesterol-free [1, 14] of the same compound?
Its Cholesterol-free is 1.5.

What about the Complete [1, 15] of the same compound?
The Complete was 0.8879.

And the “Cholesterol-free media + simvastatin (0.04 μM)” value [2, 16]?
The value was 1.665.

And the “Complete Media” value [2, 17]?
The value was 1.663.

What about the Difference [2, 18] of the same compound?
The Difference was 0.00.

With `O=C([O-])c1ccccc1O.[Na+]` [Sodium Salicylate] as the compound, how does the Cholesterol-free [1] read?
The Cholesterol-free was 1.153.

What about the Complete [1] of the same compound?
The Complete was 0.943.

What about the Difference [1] of the same compound?
Its Difference is −0.21.

What about the “Cholesterol-free media + simvastatin (0.04 μM)” value [2] of the same compound?
Its value is 1.29.

What about the “Complete Media” value [2] of the same compound?
Its value is 1.045.

What about the Difference [2] of the same compound?
Its Difference is −0.24.

Which Cholesterol-free [1, 4] does the source give for `CC1(C)S[C@@H]2[C@H](NC(=O)[C@H](N)c3ccc(O)cc3)C(=O)N2[C@H]1C(=O)O` [Amoxicillin] here?
Its Cholesterol-free is 0.9555.

What about the Complete [1, 5] of the same compound?
Its Complete is 1.159.

And the Difference [1, 9]?
Its Difference is 0.20.

And the “Cholesterol-free media + simvastatin (0.04 μM)” value [2, 6]?
The value was 0.9948.

What about the “Complete Media” value [2, 7] of the same compound?
Its value is 1.386.

What about the Difference [2, 12] of the same compound?
The Difference was 0.39.

With `CC(C)(C)c1ccc(C(=O)CCCN2CCC(OC(c3ccccc3)c3ccccc3)CC2)cc1` [Ebastine] as the compound, how does the Difference [1, 13] read?
Its Difference is −0.60.

What about the Cholesterol-free [1, 14] of the same compound?
Its Cholesterol-free is 1.238.

And the Complete [1, 15]?
The Complete was 0.6382.

What about the “Cholesterol-free media + simvastatin (0.04 μM)” value [2, 6] of the same compound?
The value was 0.2638.

And the “Complete Media” value [2, 7]?
The value was 1.066.

What about the Difference [2, 12] of the same compound?
The Difference was 0.80.

`C/C(=C(\CCOP(=O)(O)O)SC(=O)c1ccccc1)N(C=O)Cc1cnc(C)nc1N` [Benfotiamine] was tested. Which Cholesterol-free [1, 19] did it give?
The Cholesterol-free was 1.163.

What about the Complete ([1]; NCI-H292 cells, complete media) of the same compound?
Its Complete is 0.7915.

And the Difference [1, 20]?
The Difference was −0.37.

What about the “Cholesterol-free media + simvastatin (0.04 μM)” value [2, 6] of the same compound?
Its value is 1.23.

What about the “Complete Media” value [2, 7] of the same compound?
Its value is 1.076.

And the Difference [2, 8]?
The Difference was −0.15.

`Cc1ccc(C(=O)Nc2ccc(S(=O)(=O)O)c3cc(S(=O)(=O)O)cc(S(=O)(=O)O)c23)cc1NC(=O)c1cccc(NC(=O)Nc2cccc(C(=O)Nc3cc(C(=O)Nc4ccc(S(=O)(=O)O)c5cc(S(=O)(=O)O)cc(S(=O)(=O)O)c45)ccc3C)c2)c1` [Suramin (sodium salt)] was tested. Which Difference [1, 13] did it give?
Its Difference is −0.70.

What about the Cholesterol-free [1, 14] of the same compound?
The Cholesterol-free was 1.64.

And the Complete [1, 15]?
The Complete was 0.9404.

What about the “Cholesterol-free media + simvastatin (0.04 μM)” value [2, 21] of the same compound?
The value was 1.303.

And the “Complete Media” value [2, 22]?
Its value is 0.9716.

What about the Difference [2, 8] of the same compound?
Its Difference is −0.33.

`CC(C)(C)NCC(O)CSc1nc(-c2ccc(C(N)=O)s2)cs1` (centres unmarked) [Arotinolol] was tested. Which Difference [1, 10] did it give?
Its Difference is −0.18.

And the Cholesterol-free [1, 11]?
The Cholesterol-free was 1.165.

What about the Complete [1, 7] of the same compound?
The Complete was 0.9888.

What about the “Cholesterol-free media + simvastatin (0.04 μM)” value [2, 6] of the same compound?
Its value is 1.158.

And the “Complete Media” value [2, 7]?
Its value is 1.017.

And the Difference [2, 8]?
Its Difference is −0.14.

For `C=CCc1ccc(O)c(OC)c1` [Eugenol], which Cholesterol-free [1, 19] is on record?
Its Cholesterol-free is 1.418.

What about the Complete ([1]; NCI-H292 cells, complete media) of the same compound?
Its Complete is 1.048.

And the Difference [1, 20]?
Its Difference is −0.37.

And the “Cholesterol-free media + simvastatin (0.04 μM)” value [2, 6]?
The value was 0.8347.

And the “Complete Media” value [2, 7]?
The value was 1.009.

What about the Difference [2, 12] of the same compound?
The Difference was 0.17.

What does the source list for `COc1cc(CNC(=O)CCCC/C=C/C(C)C)ccc1O` [Capsaicin]?
Difference [1, 3]: −0.28; Cholesterol-free [1, 19]: 1.197; Complete ([1]; NCI-H292 cells, complete media): 0.9142; Cholesterol-free media + simvastatin (0.04 μM) [2, 16]: 1.403; Complete Media [2, 17]: 1.38; Difference [2, 18]: −0.02

With `CC1(C)S[C@@H]2[C@H](NC(=O)[C@H](N)c3ccccc3)C(=O)N2[C@H]1C(=O)O` [Ampicillin] as the compound, how does the Cholesterol-free [1, 4] read?
The Cholesterol-free was 0.9318.

And the Complete [1, 5]?
Its Complete is 1.363.

And the Difference [1, 9]?
The Difference was 0.43.

What about the “Cholesterol-free media + simvastatin (0.04 μM)” value [2, 21] of the same compound?
The value was 1.07.

What about the “Complete Media” value [2, 22] of the same compound?
The value was 0.7564.

And the Difference [2, 8]?
Its Difference is −0.31.

With Alverine (citrate) as the compound, how does the Difference [1, 13] read?
The Difference was −0.59.

And the Cholesterol-free [1, 14]?
Its Cholesterol-free is 1.703.

What about the “Cholesterol-free media + simvastatin (0.04 μM)” value [2, 6] of the same compound?
Its value is 0.4761.

And the “Complete Media” value [2, 7]?
Its value is 1.128.

What about the Difference [2, 12] of the same compound?
The Difference was 0.65.
